Data set [1] concerns CREB. Briefly: CREB activation (phosphorylation on serine 133) in wild-type cortical neurons, western blotting. The data set is classed as cell-based, mouse. The settings on record: 20 minutes, 7 days in vitro. How it is done: (§1) To assess the ability of peptides P1, P2 and P6, respectively, to activate transcription factor CREB, cortical neurons were isolated from p0 wild-type mice and seeded in a density of 500.000 per well. After 7 days in vitro the neurons were stimulated with the different peptide variants at 1 uM in neurobasal A media and incubated at 37° C. and 5% C02 for 20 minutes. Hereafter, the neurons were lysed in lysis buffer containing DTT and cOmplete cocktail protease inhibitor and subsequently sonicated to disrupt the nuclear membrane. The phosphorylation of CREB on serine 133 was validated by western blotting normalized to beta-actin. As control, cells were stimulated with a scrambled peptide (Scr). Student's t-test was used for statistical analysis.
as §1, with “The” for “To assess the”, “peptide P1” for “peptides P1, P2”, “a linear peptide analog of P1 with acetylated N- and amidated C-terminals (referred to as LP1)” for “P6, respectively,”, “CREB was assessed. Cortical” for “CREB, cortical”, “20 nM” for “1 uM”, “CO2” for “C02”
On the technique in general: A western blot detects proteins with antibodies after separation by electrophoresis.

Data set [2] relates to primary hippocampal neurons. Briefly: Lysosomal acidification in wild-type hippocampal neurons, LysoSensor DND-189 live imaging. The settings on record: 1 uM. Type of data set: cell-based, mouse. How it is done: Primary hippocampal neurons were seeded in an 8-well ibidi chamber pre-coated with Poly-I and laminin. 75.000 neurons were seeded pr. well. After 5 days in vitro the neurons were stimulated for 4, 8 or 24 hours with peptide P1 at 1 uM in neurobasal A with B27. After stimulation, the medium was changed to pre-warmed (37° C.) neurobasal A containing 1 uM of LysoSensor probe DND-189 (an acidotropic probes that accumulates in acidic organelles as the result of protonation) and incubated for 30 min. at 37° C. in a 5% C02 atmosphere. Hereafter, the media was changed to pre-warmed FluoroBrite Medium and the neurons were imaged in Olympus microscopy system. Pictures were taken of the lysosomes and processed using the ScanR imaging software to give fluorescence (intensity) of each lysosomal vesicle. The summed total intensity of all lysosomes was calculated and divided by the total number of neurons imaged yielding the total intensity of lysosomes per neuron. Student's t-test was used for statistical analysis.

A further data set deals with CYP450 enzymes. Put plainly: Cytochrome P450 inhibition in liver microsomes. The settings on record: dose-range of P1, with or without NADPH. The data set is classed as in vitro ADME. How it is done:
Liver microsomes were prepared with cocktails of known substrates of the respective CYP450 enzymes to evaluate the effects of P1 on enzyme inhibition. For each CYP-enzyme a previously described inhibitor was used as a positive control. Sample solutions were pre-incubated with P1 (10 mM) or inhibitor at 37° C. for ten minutes before addition of NADPH. Enzyme activity was measured in samples containing a dose-range of P1 with or without NAPDH (substrate used by the liver enzymes in detoxification steps). Reactions were incubated for 10 minutes before the reactions were stopped and analysed by LCMS to detect CYP metabolites.
For orientation: Liver microsomes are a subcellular fraction often used to study metabolism.

Data set [3] relates to CREB. Briefly: CREB activation in GRN+/- cortical neurons, western blotting. The data set is classed as cell-based, mouse. The conditions noted are these: 1 uM, 20 minutes. How it is done: In this study, it was examined whether peptide P1 could increase phosphorylation of CREB (ser133) similar to wild-type neurons. To study the activation of CREB, cortical neurons were isolated from GRN+/−p0 […] mice and seeded in a density of 500,000 per well. After 7 days in vitro the neurons were stimulated with peptide P1 at 1 uM in neurobasal A media at 37° C. and 5% CO2 and incubated for 20 minutes. Following, the neurons were lysed in lysis buffer containing DTT and cOmplete cocktail protease inhibitor and subsequently sonicated to disrupt the nuclear membrane. The phosphorylation of CREB on serine 133 was subsequently validated by western blotting. The levels of phosphorylated CREB were normalized to the corresponding beta-actin levels. Student's t-test was used for statistical analysis.

Data set [4] has as its system AMPK (T172) and Raptor (S792). Briefly: Phosphorylation of AMPK (T172) and Raptor (S792) in cortical neurons, western blotting. Type of data set: cell-based, mouse. The settings on record: 1 uM, 20 minutes. How it is done:
To assess the ability of peptide P1 to activate AMPK and subsequently inactivate the mTOR complex, mouse cortical neurons were isolated from p0 wild-type mice and seeded in a density of 250,000 per well in a 12-well tray. After 7 days in vitro the neurons were stimulated with P1 in neurobasal A media and incubated at 37° C. and 5% CO2 for 20 minutes. Hereafter, the neurons were lysed in lysis buffer containing DTT and cOmplete cocktail protease inhibitor. The phosphorylation of AMPK (T172) and Raptor (S792) was validated by western blotting normalized to beta-actin.

For data set [5], the system named is R6/2 mice (mouse model of Huntington's). Put plainly: Brain weight and activity studies in R6/2 mice (open field, clasping, rotarod). The data set is classed as in vivo. The conditions noted are these: 13 mg/kg SC daily. How it is done: The R6/2 mice were injected with a daily dose of 13 mg/kg of P1 subcutaneously in 4.38 mM L-His, 140 mM NaCl, 0.2% Tween-20 and 1500 IU hyaluronidase (pH 6.15) between 8 weeks to 12 weeks of age. At 12 weeks of age, mice were sacrificed and their brains removed and both hippocampus—cortex and striatal tissue was isolated and lysed in RIPA lysis buffer containing containing cOmplete and phosSTOP.
Prior to treatment (8 weeks of age), the R6/2 mice were weighed and assessed for clasping and rotarod behavior before randomization to 4 cages of n=6 each (two cages pr treatment group). The experimenter remained blinded throughout the studies and data analysis. Motor coordination was measured by hind-limb clasping and rotarod between week 7-12.
Clasping: Mice were once weekly assessed for clasping behavior. Mice were placed on the top grid of a cage and then held by the tail and lifted over the top of the homecage for 10 successive trials of 3 seconds with 3 second rest intervals
Rotarod: Accelerating test—cylinder accelerates from 4 to 40 RPM in 5 minutes with linear speed progression. During the first week of training, mice undergo 3 trials per day for 3 consecutive days. During training sessions, mice receive “second changes” when falling from the rotarod. The following weeks, mice are tested on only one day for 3 consecutive trials. The mean latency to fall is used for data analysis.
At 11 weeks of age, mice were subjected to an open field consisting of a 40×40 cm box with transparent Plexiglas walls of 50 cm height. Their behaviour was recorded using an automated tracking software and camera (Anymaze, Havard apparatus). Distance travelled and number of rears were recorded over a 20 min. period.
Brain weight: At 12 weeks of age, mice were sacrificed and the entire brain was carefully extracted and weighed using a fine-scale weigh.
(In general: In the rotarod test animals must keep their balance on a rotating rod.)

The mark [6] stands for this setting: 11 weeks of age, 20 min, vs vehicle.

Where a SMILES comes first, the peptide text is derived from it.

With `CSCC[C@@H]1NC(=O)[C@H](C(C)C)NC(=O)[C@H](CC(=O)O)NC(=O)[C@H](CCC(=O)O)NC(=O)[C@H](CCC(=O)O)NC(=O)[C@H](Cc2c[nH]cn2)NC(=O)[C@H](CCC(=O)O)NC(=O)[C@H](C(C)C)NC(=O)[C@@H]2CCCN2C(=O)[C@H](CCC(=O)O)NC(=O)[C@H]([C@@H](C)O)NC1=O` [Peptide P1, [MTEPVEHEEDV]] (cyclo(MTEPVEHEEDV)), the “activation of CREB (phosphorylation on serine 133) compared to scrambled peptide” value with CREB [1] (20 nM) is “activated CREB”. The “activation of CREB (phosphorylation on serine 133) compared to scrambled peptide” value with CREB [1] (1 uM) is recorded as “markedly activated CREB”. In addition, the “lysosomal intensity (lysosomal acidification)” value (“lysosomal intensity” for short) in data set [2] (4 hours) is given as “lysosomal intensity was increased”. Besides, in data set [2] (8 hours), the “lysosomal intensity” value is “lysosomal intensity was increased”. For the same compound, in data set [2] (24 hours), the “lysosomal intensity” value is reported as “no difference”. In addition, the CYP-inhibition result with CYP450 enzymes was “no CYP-inhibition effects”. Also, the “phosphorylation of CREB (S133)” value in the data set on CREB [3] is listed as “able to activate CREB”. Besides, in data set [4], the “AMPK phosphorylation on T172” value is “activates AMPK” and the “Raptor phosphorylation on S792” value is “inactivates Raptor”. In data set [5] (8 to 12 weeks of age, at 12 weeks), the “average increase of brain weight” value was 14 mg. In data set [5] (week 8-12), the “motor function, clasping” value is “tendency to improve motor functions” and the “motor function, rotarod” value was “tendency to improve motor functions”. Moreover, in data set [5] (setting [6]), the “distance travelled, open field” value is “significantly higher” and the “rearing frequency, open field” value was “significantly higher”.

The values above are taken from US20230312652A1, “NOVEL PEPTIDES AND USES THEREOF” (Aarhus Universitet, priority 2020, published 2023).
